Measurements from US11173124B2, “Oral delivery of GLP-1 peptide analogs” (MEDIMMUNE LIMITED, priority 2017, dated 2021).
Where two headings read alike, the source gives them in different places.

Assays:
Caco-2 cells = assay: Caco-2 study, Permeability (%) of lipidated peptides (Example 3); type: in vitro ADME, human; conditions: 0.1 mg/mL peptide
Excerpt: The Caco-2 cell line is a continuous cell line of heterogeneous human epithelial colorectal adenocarcinoma cells, which when cultured under specific conditions, become differentiated and polarized such that their phenotype, morphologically and functionally, resembles the enterocytes lining the small intestine. Caco-2 cells express tight junctions, microvilli, and a number of enzymes and transporters that are characteristic of such enterocytes. Caco-2 cells are most commonly used as a tight junction monolayer that provides a physical and biochemical barrier to the passage of drugs and thus serves as an in vitro model of the human small intestinal mucosa to predict the absorption of orally administered drugs. Caco-2 permeability assays were performed by Cyprotex US, LLC (MA, USA) to assess the efficacy of different permeation enhancers. Caco-2 cells were grown on Transwell filters until a transepithelial electric resistance of ˜1000 ohms/cm^2 was achieved. The cells were incubated for three hours with media containing test samples on the apical (top) side of the cell layer, and with blank media on the basolateral (lower) side of the cell layer. Media from the apical and basolateral sides was collected separately after three hours and evaluated for the amount of peptide present on each side. Table 2 gives the permeability coefficient (Papp) of the various test samples, which include the SEQ ID NO:3 GLP-1 peptide in the presence of different excipients.
A following Caco-2 study was performed to evaluate the permeability of different peptides in the presence of various permeation enhancers. Permeability (%) was calculated by dividing the cumulative amount of molecules transported with the original loading amount. Concentrations of peptides in starting sample and apical and basal solutions after incubation for pre-determined periods were analyzed by HPLC. Sodium chenodeoxycholate at 25 mg/mL effected the highest permeability of each tested peptide (Table 4).

[1] = First rat intraduodenal study, sodium caprate as permeation enhancer (Example 4); type: in vivo; conditions: for AUC / Cmax / Tmax / half-life: in vivo; for bioavailability: plasma
Method: Solution formulations comprising GLP-1 peptide analogs were injected into rats in the duodenum segment of the small intestine. The first ID study involved the use of sodium caprate as the permeation enhancer and the SEQ ID NO:3 GLP-1 peptide analog. Absolute bioavailability (% F) is a percentage-expressed measure of systemic drug exposure after oral, or in the current example intraduodenal, administration to the systemic exposure generated with intravenous (IV) administration of drug solution. Absolute bioavailability, (% F), is calculated as a percentage of systemic, or blood, drug concentration area under curve (AUC) of the AUC of IV administration adjusted to the amounts of drug given via these routes of administration.

[2] = Intraduodenal, 1 mg/kg peptide, 0 mg/kg sodium caprate, 0.5 mg/mL in PBS pH 8.0
[3] = 50 mg/kg, pH 8.5, rat, Intraduodenal, 50 mg/kg peptide + 50 mg/kg sodium caprate, PBS pH 8.5
[4] = iv, 0.01 mg/kg, pH 8, rat, 0.01 mg/kg peptide in PBS pH 8.0
[5] = pH 8, rat, Intraduodenal, 1 mg/kg peptide, 0 mg/kg sodium caprate, 0.5 mg/mL in PBS pH 8.0
[6] = pH 8.5, rat, Intraduodenal, 1 mg/kg peptide + 50 mg/kg sodium caprate, PBS pH 8.5
[7] = pH 8.5, rat, Intraduodenal, 10 mg/kg peptide + 50 mg/kg sodium caprate, PBS pH 8.5
[8] = sc, 0.118 mg/kg, Subcutaneous, 0.118 mg/kg peptide in 0.1% BSA-PBS

CC[C@H](C)[C@H](NC(=O)C(C)(Cc1ccccc1)NC(=O)[C@H](CCC(=O)O)NC(=O)[C@H](CCCCNC(=O)COCCOCCNC(=O)COCCOCCNC(=O)CC[C@H](NC(=O)CCCCCCCCCCCCCCCCC(=O)O)C(=O)O)NC(=O)[C@H](C)NC(=O)[C@H](C)NC(=O)[C@H](CCC(=O)O)NC(=O)CNC(=O)[C@H](CCC(=O)O)NC(=O)[C@H](CC(C)C)NC(=O)C(C)(Cc1ccccc1)NC(=O)[C@H](CO)NC(=O)C(C)(CO)NC(=O)[C@@H](NC(=O)[C@H](CC(=O)O)NC(=O)[C@H](CO)NC(=O)[C@@H](NC(=O)C(C)(Cc1ccccc1)NC(=O)[C@H](CO)NC(=O)CNC(=O)[C@H](CCC(=O)O)NC(=O)C(C)(C)NC(=O)[C@@H](N)Cc1c[nH]cn1)[C@@H](C)O)C(C)C)C(=O)N[C@@H](C)C(=O)NC(C)(Cc1ccccc1)C(=O)N[C@H](C(=O)N[C@H](C(=O)NC(C)(CCCCN)C(=O)NCC(=O)NCC(N)=O)C(C)C)C(C)C (stereo partly drawn) [SEQ ID NO: 3, Free-H-[AIB]-EGS-[αMePhe]-TSDV-[αMeSer]-S-[αMePhe]-LEGEAAK[(PEG2)2-γE-Stearate]-E-[αMePhe]-IA-[αMePhe]-VV-[αMeLys]-GG-amide]
Permeability (%) (Caco-2 cells; 5.0 mg/mL Chitosan): 0%
Permeability (%) (Caco-2 cells; 5.0 mg/mL Octyl β-D-glucopyranoside): 0%
Permeability (%) (Caco-2 cells; 5.0 mg/mL Sodium Chenodeoxycholate): 1.7%
Permeability (%) (Caco-2 cells; 5.0 mg/mL Tri-Me-Chitosan): 0%
Permeability (%) (Caco-2 cells; 25 mg/mL Chitosan): 0%
Permeability (%) (Caco-2 cells; 25 mg/mL Octyl β-D-glucopyranoside): 2.0%
Permeability (%) (Caco-2 cells; 25 mg/mL Sodium Chenodeoxycholate): 12.6%
Permeability (%) (Caco-2 cells; 25 mg/mL Tri-Me-Chitosan): 0%
Permeability (%) (Caco-2 cells; no enhancer): 0%
improvement in permeation ([1]; ID, 1 mg/kg peptide, 50 mg/kg sodium caprate (to 0.15%)): ~5 fold
F ([1]; Intraduodenal, 1 mg/kg peptide + 50 mg/kg sodium caprate, PBS pH 8.5): 0.15%
F [1, 2]: 0.035%
F ([1]; Intraduodenal, 10 mg/kg peptide + 50 mg/kg sodium caprate, PBS pH 8.5): 0.29%
F ([1]; Intraduodenal, 50 mg/kg peptide + 50 mg/kg sodium caprate, PBS pH 8.5): 0.71%
F ([1]; Intravenous, 0.01 mg/kg peptide in PBS pH 8.0): 100%
AUC [1, 3]: 46000 ng·h/mL
Cmax [1, 3]: 6300 ng/mL
Tmax [1, 3]: 0.44 h
half-life ([1]; 50 mg/kg, pH 8.5, rat, Intraduodenal, 50 mg/kg peptide + 50 mg/kg sodium caprate, PBS pH 8.5, read-out: T ½ (converted)): 8.3 h
AUC [1, 4]: 1300 ng·h/mL
Cmax [1, 4]: 210 ng/mL
Tmax [1, 4]: 0.12 h
half-life ([1]; iv, 0.01 mg/kg, pH 8, rat, Intravenous, 0.01 mg/kg peptide in PBS pH 8.0, read-out: T ½ (converted)): 10 h
AUC [1, 5]: 45 ng·h/mL
Cmax [1, 5]: 5.1 ng/mL
Tmax [1, 5]: 2.3 h
half-life ([1]; pH 8, rat, Intraduodenal, 1 mg/kg peptide, 0 mg/kg sodium caprate, 0.5 mg/mL in PBS pH 8.0, read-out: T ½ (converted)): 8.8 h
AUC [1, 6]: 200 ng·h/mL
Cmax [1, 6]: 34 ng/mL
Tmax [1, 6]: 0.38 h
half-life ([1]; pH 8.5, rat, Intraduodenal, 1 mg/kg peptide + 50 mg/kg sodium caprate, PBS pH 8.5, read-out: T ½ (converted)): 9.3 h
AUC [1, 7]: 3800 ng·h/mL
Cmax [1, 7]: 470 ng/mL
Tmax [1, 7]: 0.44 h
half-life ([1]; pH 8.5, rat, Intraduodenal, 10 mg/kg peptide + 50 mg/kg sodium caprate, PBS pH 8.5, read-out: T ½ (converted)): 10 h
AUC [1, 8]: 11000 ng·h/mL
Cmax [1, 8]: 460 ng/mL
Tmax [1, 8]: 9 h
half-life ([1]; sc, 0.118 mg/kg, Subcutaneous, 0.118 mg/kg peptide in 0.1% BSA-PBS, read-out: T ½ (converted)): 11 h
increase of bioavailability ([1]; intraduodenal, 0.71% with 50 mg/kg sodium caprate vs 0.035% without formulation intervention): ~20 fold
bioavailability [1, 2]: 0.035%
bioavailability ([1]; sc, Subcutaneous, 0.118 mg/kg peptide in 0.1% BSA-PBS): 71%
